{"source": "patent US6126909A", "about": "“Process and apparatus for the production of BI-212 and a use thereof” (Arch Development Corporation, priority 1999, dated 2000)", "key": {"[1]": {"test_system": "V-79 cells", "experiment": "In vitro irradiation survival (clonogenic), monolayer", "assay_type": "cell-based, Chinese hamster", "conditions": "V-79 monolayer", "method": "(§1) In vitro studies were carried out using three well known cell lines, the cells from which were exposed to radiation from: (1) an X-ray source; (2) P-32 chromic phosphate; and (3) Bi-212 chloride. The three cell lines that were used are V-79, which is a Chinese hamster lung fibroblast, Ehrlich-Lettre Ascites carcinoma (ATCC CCL 77), which is an ascites producing -tumor, and NIH:OVCAR-3 (ATCC HTB 161), which is a human ovarian adenocarcinoma. These well known cell lines are predictive of what happens in vivo. The cells were grown as monolayers and into spheroid formations and subsequently irradiated, as described herein.\n(§2) The V-79 cells were maintained under exponential growth conditions in minimal essential medium (MEM) supplemented with 10 percent fetal bovine serum. The Ehrlich-Lettre Ascites carcinoma cells were maintained in 90 percent NCTC 109 supplemented with 10 percent fetal bovine serum. The NIH:OVCAR-3 cells were maintained in RPMI 1640 and 10 percent fetal bovine serum.\n(§3) Cells from each of the cell lines were irradiated by subjecting the cells to X-ray radiation, P-32, and Bi-212. The X-ray source that was used is a General Electric 250 kvp Maxitron, 26 […] (mA) (HVL 1.5 mm Cu) operated at a dose rate of 1.11 Greys per minute (Gy/min). The cells, in both monolayer and spheroid form were exposed at room temperature and then immediately plated for survival.\n(§4) Cells in both monolayer and spheroid were exposed to P-32 chromic phosphate. The radiation dose to each sample was calculated as: […]\n(§5) After exposure, the cells were washed in phosphate-buffered saline (PBS) and immediately plated for survival.\nThe cell lines were also irradiated using Bi-212. Bismuth-212 was eluted from a generator as described in the aforementioned patent to Atcher et al., which was a cation-exchange column supporting Ra-224, with 1 ml of 0.15 N HI, and the generator was purged with 2 ml of distilled deionized water. […] The filter was purged with 1 ml of distilled deionized water, and the radioactivity was assayed using a calibrated 3×3-in. […]\n(§6) Cells were exposed over a period of four hours. The dose (D) per microCurie was calculated and corrected for decay as follows: [formula] where V=volume in milliliters, and […]\n(§7) Following plating, survival measurements were taken for each of the irradiated cell samples. […] The plates were then stained with crystal violet and colonies greater than 50 cells were scored. The surviving fraction was then determined.\nIntrinsic radiosensitivity (Do) was calculated from the survival curves. […] Relative biological effectiveness (RBE) was determined as the ratio of the absorbed dose of X-ray to that of alpha radiation to produce the same degree of biological effect."}, "[2]": {"test_system": "NIH:OVCAR-3 cells (spheroids)", "experiment": "In vitro irradiation survival, spheroids", "assay_type": "cell-based, human", "conditions": "OVCAR-3 spheroids", "method": "as §1, §2\nTo initiate the formation of the spheroids, cells at a concentration of about 500,000 cells per flask were seeded onto petri dishes base-cooked with 1 percent agar MEM without serum. After spheroids having a size of about 20 micrometers (μm) formed, the spheroids were transferred to spinner bottles and maintained for two to three weeks at a temperature of 37° C. in a CO2 incubator until they grew to 10 to 1000 μm. Prior to irradiation, the spheroids were sized and separated using a spheroid separation column.\nas §3, §4, §5\nThe cell lines were also irradiated using Bi-212. […] The filter was purged with 1 ml of distilled deionized water, and the radioactivity was assayed using a calibrated 3×3-in. […]\nas §6, §7\nIntrinsic radiosensitivity (Do) was calculated from the survival curves. […]"}, "[3]": {"experiment": "Solubility of Bi-212 at various pH values (0.22 μ filter)", "assay_type": "physicochemical", "method": "The solubility was measured by passing the solution through a 0.22 μ Nalgene® filter and measuring the activity of the resulting solution and the activity of the filter."}, "[4]": {"experiment": "Retention of chelated and non-chelated Bi-212 in peritoneal fluid", "assay_type": "in vivo, rabbit", "conditions": "rabbits, 3 hours after instillation", "method": "Groups of rabbits were instilled with a varying amounts (correlating to varying activities) of Bi-212 that were prepared in accordance with the before-described process, neutralized to pH values of between 5.0 and 7.4, and had added thereto a quantity of normal saline to make a 200 cc sample. To compare the distribution of Bi-212, Pb-212 ferrous hydroxide was prepared in accordance with known methods. Rotmensch et al., Gynecol. Oncol., 35:297-300 (1989). Groups of rabbits were also instilled with the Pb-212 ferrous hydroxide preparation.\nOf the groups of rabbits instilled with the Bi-212 solution, a rabbit was imaged and necropsied at each of one-half hour, one hour and three hours after instillation. The percent injected activity (%IA) in each organ was measured to determine the distribution of the Bi-212(Table 6). To determine whether chelating to DTPA improved the retention of Bi-212 in the peritoneal fluid, a group of rabbits was instilled with Bi-212 DTPA, and was imaged and necropsied at three hours following instillation. The percent activity remaining in the peritoneal fluid was measured."}}}
{"smiles": "[212Bi]", "note": "[Bi-212, bismuth-212]", "values": [{"measurement": "D0 (intrinsic radiosensitivity)", "setting": "[1]; dose increment reducing survival to 37 percent", "result": 0.77, "unit": "Gy"}, {"measurement": "Relative biological effectiveness (RBE)", "setting": "[1]; relative to X-ray", "result": 3.02}, {"measurement": "D0 (intrinsic radiosensitivity)", "setting": "[2]; dose to 37 percent survival", "result": 0.55, "unit": "Gy"}, {"measurement": "Relative biological effectiveness (RBE)", "setting": "[2]; relative to X-ray", "result": 2.81}, {"measurement": "Maintained in solution", "setting": "[3]; acidic pH", "result": "maintained in solution at an acidic pH value"}, {"measurement": "Activity in solution", "setting": "[3]; pH 6", "result": 5.55, "unit": "mCi"}, {"measurement": "Activity on filter", "setting": "[3]; pH 6", "result": 0.24, "unit": "mCi"}, {"measurement": "Percent activity in solution", "setting": "[3]; pH 6", "result": 96, "unit": "%"}, {"measurement": "Percent activity on filter", "setting": "[3]; pH 6", "result": 4, "unit": "%"}, {"measurement": "Activity in solution", "setting": "[3]; pH 7", "result": 3.24, "unit": "mCi"}, {"measurement": "Activity on filter", "setting": "[3]; pH 7", "result": 0.023, "unit": "mCi"}, {"measurement": "Percent activity in solution", "setting": "[3]; pH 7", "result": 94, "unit": "%"}, {"measurement": "Percent activity on filter", "setting": "[3]; pH 7", "result": 6, "unit": "%"}, {"measurement": "Activity in solution", "setting": "[3]; pH 8", "result": 1.90, "unit": "mCi"}, {"measurement": "Activity on filter", "setting": "[3]; pH 8", "result": 0.50, "unit": "mCi"}, {"measurement": "Percent activity in solution", "setting": "[3]; pH 8", "result": 83, "unit": "%"}, {"measurement": "Percent activity on filter", "setting": "[3]; pH 8", "result": 17, "unit": "%"}, {"measurement": "Activity in solution", "setting": "[3]; pH 9", "result": 0.65, "unit": "mCi"}, {"measurement": "Activity on filter", "setting": "[3]; pH 9", "result": 1.35, "unit": "mCi"}, {"measurement": "Percent activity in solution", "setting": "[3]; pH 9", "result": 32, "unit": "%"}, {"measurement": "Percent activity on filter", "setting": "[3]; pH 9", "result": 68, "unit": "%"}, {"measurement": "Solubility dependence on pH", "setting": "[3]; radio-impurity-free solution", "result": "solubility increasing with a decrease in pH value"}, {"measurement": "% activity in blood volume", "setting": "[4]", "result": 4.5, "unit": "%"}, {"measurement": "% activity in peritoneal fluid", "setting": "[4]", "result": 80, "unit": "%"}, {"measurement": "% activity in urine", "setting": "[4]", "result": 6.0, "unit": "%"}]}
